Reference: PubChem BioAssay (NCI)
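Tested at 5 concentrations; 48 h exposure; 96-well plates; endpoints linearly interpolated, else capped at highest concentration. TGI denotes the concentration required for complete inhibition of growth.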

Legend:
Test in all cases: DTP human tumour cell line panel, 48 h
OVCAR-4 ovarian = system: OVCAR-4 ovarian
TK-10 renal = system: TK-10 renal
SF-268 CNS = system: SF-268 CNS
HCT-15 colon = system: HCT-15 colon
MOLT-4 leukemia = system: MOLT-4 leukemia
KM12 colon = system: KM12 colon
UO-31 renal = system: UO-31 renal
SK-MEL-2 melanoma = system: SK-MEL-2 melanoma
OVCAR-8 ovarian = system: OVCAR-8 ovarian
SF-539 CNS = system: SF-539 CNS

| SMILES | TGI (OVCAR-4 ovarian) [µM] | TGI (TK-10 renal) [µM] | TGI (SF-268 CNS) [µM] | TGI (HCT-15 colon) [µM] | TGI (MOLT-4 leukemia) [µM] | TGI (KM12 colon) [µM] | TGI (UO-31 renal) [µM] | TGI (SK-MEL-2 melanoma) [µM] | TGI (OVCAR-8 ovarian) [µM] | TGI (SF-539 CNS) [µM] |
| --- | --- | --- | --- | --- | --- | --- | --- | --- | --- | --- |
| COc1cc(/C=N/NC2=NCCN2)ccc1O | > 100 | > 100 | > 100 | > 100 | > 100 | > 100 | > 100 | > 100 | > 100 | > 100 |
| CN1CCN([C@H]2C[C@H]3[C@@H]4CC=C5C[C@@H](O)CC[C@]5(C)[C@H]4CC[C@]3(C)[C@H]2O)CC1 | > 56.6 | > 100 | > 59.4 | > 59.2 | > 82.5 | > 86.3 | > 100 | > 100 | > 57.1 | > 56.5 |
| Cc1ccc(S[C@@H](C)[C@@](O)(C(N)=O)c2ccccc2)cc1 | 46.3 | > 100 | > 100 | > 100 | 33.3 | > 100 | 30.2 | > 100 | > 100 | 60.3 |
| Cc1ccc2c(c1C)C(=O)/C(=C/c1cccc(C)c1C(=O)O)C2 | > 100 | > 100 | > 100 | > 100 | > 100 | > 100 | > 43 | > 100 | > 100 | > 100 |
| CC[C@@]1(O)C(=O)OCc2c1cc1n(c2=O)Cc2c-1nc1ccccc1c2/C=N\NC(=O)C(N)Cc1c[nH]c2ccccc12 (stereo not given in full) | > 100 | > 100 | 19.6 | > 100 | 1.18 | > 42.7 | 1.48 | 36.3 | 25 | 0.584 |
| O=C(NCCCCCN1CCC2(CCCCC2)CC1)C(C1CCCCC1)C1CCCCC1 | 14.5 | 10.4 | 12.5 | 12.2 | 4.87 | 13 | 8.46 | 4.82 | 7.23 | 3.43 |
| Cc1ccc(NC(=O)CC(=O)n2nc(C)c(N=Nc3cccc(C)c3)c2C)cc1 | > 100 | > 100 | > 100 | > 100 | > 100 | > 100 | > 100 | > 100 | > 100 | > 100 |
| CC(C)(C)[Si](C)(C)OC[C@H](/C=C\CCCC(=O)O)NC1(c2ccccc2)c2ccccc2-c2ccccc21 | > 100 | > 100 | 35.4 | 50.9 | 33.9 | 48.8 | 34.4 | 26.7 | 46.2 | 31.3 |
| C=C1C(=O)OC2C3OC(C)(CCC(O)C3COC(C)=O)CC(OC(=O)/C(=C/C)COC(C)=O)C12 (stereo not given) | 12.3 | 0.562 | 7.84 | 0.141 | 0.389 | 3.45 | 0.807 | 6.96 | 20 | 3.22 |
| CC(C)C(NC(=O)C(Cc1ccccc1)NC(=O)[C@H]1CCC[C@H]1NC(=O)C(Cc1ccc(OC(C)(C)C)cc1)NC(=O)OC(C)(C)C)C(N)=O (stereo not given in full) | 65.4 | 72 | 70 | > 100 | 46.5 | 41.8 | > 100 | 41.6 | 34.9 | 33.8 |
| COC1CC(OC2C(C)OC(OC3C(C)OC(OC4C(C)OC(O[C@H]5CC[C@@]6(C)C(=CC[C@]7(O)[C@@H]6C[C@@H](O)[C@@]6(C)[C@]7(O)CC[C@@]6(O)C(C)=O)C5)CC4OC)CC3OC)CC2OC)OC(C)C1O (stereo not given in full) | > 12.5 | > 12.5 | > 12.5 | > 12.5 | > 12.5 | > 12.5 | > 12.5 | > 12.5 | > 12.5 | > 12.5 |
| Nc1cc2c3c(cccc3c1)C(=O)N(c1ccc(OCCN3CCCC3)cc1)C2=O | 33.8 | 35.6 | > 59.7 | 26.8 | 55.8 | 31.1 | 28.6 | 38 | 35.8 | 27.8 |
| Cc1ccc(/C=C2\N=C(N3CCCC(CO)C3)NC2=O)cc1 (stereo not given) | > 100 | > 100 | > 100 | > 100 | > 100 | > 100 | > 100 | > 100 | > 100 | > 100 |
| O=S(=O)(O)c1cc(S(=O)(=O)O)c2c(N=Nc3ccc(N=Nc4ccccc4)cc3)c(O)ccc2c1 | > 100 | > 100 | > 100 | > 100 | > 100 | > 100 | > 100 | > 100 | > 100 | > 100 |
| CC(C)c1ccc(/C=C2\CSCC3=C2N=C2SCC(=O)N2C3c2ccc(C(C)C)cc2)cc1 (stereo not given) | > 100 | > 100 | > 100 | > 100 | > 100 | > 100 | > 100 | > 100 | > 100 | > 100 |
| N#Cc1nc(-c2cccc(-c3nc(C#N)c(N)o3)n2)oc1N | > 100 | > 100 | > 100 | > 100 | > 100 | > 100 | > 100 | > 100 | > 100 | > 100 |
| CCCCCCCCCCCCO[P+](=O)OCCCCCCCCCCCC | > 100 | 99.2 | > 100 | > 100 | > 100 | 72.2 | > 100 | > 100 | > 100 | > 100 |
| CCCCCCCCCCCCOP(=O)(O)OP(=O)(O)OCC1OC(n2cc(C)c(=O)[nH]c2=O)CC1O (stereo not given) | > 100 | > 100 | > 100 | > 100 | > 100 | > 100 | > 100 | > 100 | > 100 | > 100 |
| Cc1ccc(/C=C2/N=C(N/N=C\c3ccccc3)NC2=O)cc1 | 55.1 | > 100 | > 100 | > 100 | 72.2 | > 100 | 45.6 | > 100 | > 100 | > 100 |
